Consider 29 molecules from US7846959B2, “Raf modulators and methods of use” (Exelixis, Inc., priority 2004, dated 2010).

For orientation: IC50 means the concentration needed to halve the response being measured.

The target of one assay is c-Raf (Homo sapiens, UniProt P04049). In words: Luciferase-coupled chemiluminescence kinase assay (ATP consumption), c-Raf. Type of assay: biochemical. Particulars: read-out: cRaf-1 IC50. Here is the method: (§1) Tyrosine kinase activity is determined by 1) measurement of kinase-dependent ATP consumption by in the presence of a generic substrate such as […], tyrosine (pEY), by luciferase/luciferin-mediated chemiluminescence or; 2) incorporation of radioactive phosphate derived from ^33P-ATP into a generic substrate which has been adsorbed onto the well surface of polystyrene microtiter plates. Phosphorylated substrate products are quantified by scintillation spectrometry.
(§2) Luciferase-Coupled Chemiluminescence Assay Protocol
(§3) Kinase activity is measured as the percent of ATP consumed following the kinase reaction using luciferase-luciferin-coupled chemiluminescence. Reactions were conducted in 384-well white, medium binding microtiter plates (Greiner). Kinase reactions were initiated by combining test compounds, ATP and kinase in a 20 uL volume. The reaction mixture was incubated at ambient temperature for 3 hrs. For c-Raf, B-Raf, and B-RafV599E, […] of the enzyme was pre-incubated with compound in 20 mM Tris pH 7.5, 10 mM MgCl2, 0.03% TX-100, and 1 mM DTT for 30 minutes at room temperature. Following the kinase reaction, a 20 μL aliquot of luciferase-luciferin mix was added and the chemiluminescence signal measured using a Victor^2 plate reader (Perkin Elmer). The luciferase-luciferin mix contained 50 mM HEPES, pH 7.8, 67 mM oxalic acid (pH 7.8), 5 (or 50) mM DTT, 0.4% Triton X-100, 0.25 mg/mL coenzyme A, 63 μM AMP, 28 μg/mL luciferin and 40,000 units/mL luciferase. Total ATP consumption was limited to 25-60% and the IC50 values correlate well with those determined by radiometric assays.

The target of the next assay is B-Raf (Homo sapiens, UniProt P15056). Nature of the assay: Luciferase-coupled chemiluminescence kinase assay (ATP consumption), B-Raf. The format is biochemical. On the procedure: as §1, §2, §3
Where [1] appears, read: read-out: bRaf (inhibition indicated as IC50).

Molecules are shown by their SMILES. Read-outs that look alike come from different tables or passages of the source.

B-Raf, sequence (P15056 whole entry): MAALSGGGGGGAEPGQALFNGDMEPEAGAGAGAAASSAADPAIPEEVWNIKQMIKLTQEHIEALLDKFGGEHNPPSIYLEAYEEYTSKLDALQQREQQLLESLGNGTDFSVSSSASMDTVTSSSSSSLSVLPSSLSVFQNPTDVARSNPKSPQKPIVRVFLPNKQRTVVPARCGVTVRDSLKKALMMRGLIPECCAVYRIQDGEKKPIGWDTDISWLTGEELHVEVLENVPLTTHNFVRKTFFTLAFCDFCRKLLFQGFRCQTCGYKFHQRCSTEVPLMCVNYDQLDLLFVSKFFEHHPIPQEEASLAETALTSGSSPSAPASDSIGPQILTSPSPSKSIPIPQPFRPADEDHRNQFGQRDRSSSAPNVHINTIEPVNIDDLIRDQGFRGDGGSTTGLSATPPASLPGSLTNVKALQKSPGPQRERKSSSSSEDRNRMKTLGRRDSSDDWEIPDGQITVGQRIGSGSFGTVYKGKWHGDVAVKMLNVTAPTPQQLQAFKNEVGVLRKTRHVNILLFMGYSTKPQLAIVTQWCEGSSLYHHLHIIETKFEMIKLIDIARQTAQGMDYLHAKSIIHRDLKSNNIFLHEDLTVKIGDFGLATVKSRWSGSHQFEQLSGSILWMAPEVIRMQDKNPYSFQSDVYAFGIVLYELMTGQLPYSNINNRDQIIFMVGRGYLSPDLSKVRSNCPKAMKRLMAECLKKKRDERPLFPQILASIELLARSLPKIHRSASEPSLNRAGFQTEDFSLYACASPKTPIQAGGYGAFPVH
c-Raf, sequence (P04049 whole entry): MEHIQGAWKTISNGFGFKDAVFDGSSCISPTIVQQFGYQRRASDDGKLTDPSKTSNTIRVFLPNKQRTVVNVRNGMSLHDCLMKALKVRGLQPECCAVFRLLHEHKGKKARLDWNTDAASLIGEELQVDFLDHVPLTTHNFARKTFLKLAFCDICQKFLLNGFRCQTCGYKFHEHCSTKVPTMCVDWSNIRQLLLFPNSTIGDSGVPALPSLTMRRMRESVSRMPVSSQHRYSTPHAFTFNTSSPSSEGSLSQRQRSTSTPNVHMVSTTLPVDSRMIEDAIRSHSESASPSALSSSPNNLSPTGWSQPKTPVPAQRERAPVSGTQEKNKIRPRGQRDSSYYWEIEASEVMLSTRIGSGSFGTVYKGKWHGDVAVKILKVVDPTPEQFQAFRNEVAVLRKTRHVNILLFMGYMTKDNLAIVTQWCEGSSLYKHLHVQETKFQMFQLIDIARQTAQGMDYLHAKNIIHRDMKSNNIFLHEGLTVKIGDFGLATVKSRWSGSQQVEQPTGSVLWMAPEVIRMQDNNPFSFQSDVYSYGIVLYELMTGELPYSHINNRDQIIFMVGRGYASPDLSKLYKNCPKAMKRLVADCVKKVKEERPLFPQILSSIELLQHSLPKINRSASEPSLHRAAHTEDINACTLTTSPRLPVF

Turning to `O=C1COc2ccc(C3(O)c4ccccc4C(=O)N3Cc3ccccc3Cl)cc2N1` (stereo not shown) [Entry 35, 6-{2-[(2-chlorophenyl)methyl]-1-hydroxy-3-oxo-2,3-dihydro-1H-isoindol-1-yl}-2H-1,4-benzoxazin-3(4H)-one], the IC50 at c-Raf was 1000 to 10000 nM; at B-Raf (read-out: bRaf IC50), ≥ 10000 nM.

In the case of `O=C1COc2ccc(C3(O)c4ccccc4C(=O)N3Cc3cccc(F)c3)cc2N1` (stereo not shown) [Entry 36, 6-{2-[(3-fluorophenyl)methyl]-1-hydroxy-3-oxo-2,3-dihydro-1H-isoindol-1-yl}-2H-1,4-benzoxazin-3(4H)-one], the IC50 at c-Raf and at B-Raf (read-out: bRaf IC50) was 1000 to 10000 nM each time.

As to `O=C1COc2ccc(C3(O)c4ccccc4C(=O)N3Cc3ccccc3Br)cc2N1` (stereo not shown) [Entry 37, 6-{2-[(2-bromophenyl)methyl]-1-hydroxy-3-oxo-2,3-dihydro-1H-isoindol-1-yl}-2H-1,4-benzoxazin-3(4H)-one], the IC50 at c-Raf and on B-Raf (read-out: bRaf IC50) was ≥ 10000 nM throughout.

As to `O=C1COc2ccc(C3(O)c4ccccc4C(=O)N3Cc3ccccc3F)cc2N1` (stereo not shown) [Entry 38, 6-{2-[(2-fluorophenyl)methyl]-1-hydroxy-3-oxo-2,3-dihydro-1H-isoindol-1-yl}-2H-1,4-benzoxazin-3(4H)-one], the values for the half-inhibitory concentration (IC50) at c-Raf and at B-Raf (read-out: bRaf IC50) were 1000 to 10000 nM and ≥ 10000 nM, respectively.

As to `O=C1COc2ccc(C3(O)c4ccccc4C(=O)N3c3cccc(F)c3)cc2N1` (stereo not shown) [Entry 39, 6-[2-(3-fluorophenyl)-1-hydroxy-3-oxo-2,3-dihydro-1H-isoindol-1-yl]-2H-1,4-benzoxazin-3(4H)-one], the IC50 at c-Raf lay within 100 to 1000 nM; at B-Raf (read-out: bRaf IC50) it was 1000 to 10000 nM.

As to `O=C1COc2ccc(C3(O)c4ccccc4C(=O)N3c3cccc(I)c3)cc2N1` (stereo not shown) [Entry 40, 6-[1-hydroxy-2-(3-iodophenyl)-3-oxo-2,3-dihydro-1H-isoindol-1-yl]-2H-1,4-benzoxazin-3(4H)-one], the IC50 on c-Raf was < 100 nM; on B-Raf (read-out: bRaf IC50), 100 to 1000 nM.

For the molecule `O=C1COc2ccc(C3(O)c4ccccc4C(=O)N3c3cccc(Br)c3)cc2N1` (stereo not shown) [Entry 41, 6-[2-(3-bromophenyl)-1-hydroxy-3-oxo-2,3-dihydro-1H-isoindol-1-yl]-2H-1,4-benzoxazin-3(4H)-one], the half-maximal inhibitory concentration (IC50) on c-Raf is < 100 nM; at B-Raf (read-out: bRaf IC50), 100 to 1000 nM.

For `O=C1COc2ccc(C3(O)c4ccccc4C(=O)N3c3cccc([N+](=O)[O-])c3)cc2N1` (stereo not shown) [Entry 42, 6-[1-hydroxy-2-(3-nitrophenyl)-3-oxo-2,3-dihydro-1H-isoindol-1-yl]-2H-1,4-benzoxazin-3(4H)-one], the results for the IC50 at c-Raf and at B-Raf (read-out: bRaf IC50) were 100 to 1000 nM and 1000 to 10000 nM, respectively.

Turning to `COc1cccc(N2C(=O)c3ccccc3C2(O)c2ccc3c(c2)NC(=O)CO3)c1` (stereo not shown) [Entry 43, 6-{1-hydroxy-2-[3-(methyloxy)phenyl]-3-oxo-2,3-dihydro-1H-isoindol-1-yl}-2H-1,4-benzoxazin-3(4H)-one], the concentration for half-maximal inhibition (IC50) on c-Raf and on B-Raf (read-out: bRaf IC50) was 100 to 1000 nM throughout.

As for `Cc1cccc(N2C(=O)c3ccccc3C2(O)c2ccc3c(c2)NC(=O)CO3)c1` (stereo not shown) [Entry 44, 6-[1-hydroxy-2-(3-methylphenyl)-3-oxo-2,3-dihydro-1H-isoindol-1-yl]-2H-1,4-benzoxazin-3(4H)-one], the IC50 on c-Raf and at B-Raf (read-out: bRaf IC50) was 100 to 1000 nM each time.

As for `Nc1ccccc1N1C(=O)c2ccccc2C1(O)c1ccc2c(c1)NC(=O)CO2` (stereo not shown) [Entry 47, 6-[2-(2-aminophenyl)-1-hydroxy-3-oxo-2,3-dihydro-1H-isoindol-1-yl]-2H-1,4-benzoxazin-3(4H)-one], the half-inhibitory concentration (IC50) on c-Raf and at B-Raf (read-out: bRaf IC50) was 100 to 1000 nM throughout.

`O=C1COc2ccc(C(=O)c3ccccc3-c3nc(-c4ccccc4)no3)cc2N1` [Entry 48, 6-{[2-(3-phenyl-1,2,4-oxadiazol-5-yl)phenyl]carbonyl}-2H-1,4-benzoxazin-3(4H)-one]: the IC50 at c-Raf and at B-Raf (read-out: bRaf IC50) was ≥ 10000 nM in each case.

With `O=C1COc2ccc(C(=O)c3ccccc3-c3nc4ccccc4[nH]3)cc2N1` [Entry 49, 6-{[2-(1H-benzimidazol-2-yl)phenyl]carbonyl}-2H-1,4-benzoxazin-3(4H)-one], the IC50 on c-Raf and at B-Raf (read-out: bRaf IC50) was ≥ 10000 nM each time.

Regarding `O=C1COc2ccc(C3(O)c4ccccc4C(=O)N3Cc3ccccc3C(F)(F)F)cc2N1` (stereo not shown) [Entry 50, 6-(1-hydroxy-3-oxo-2-{[2-(trifluoromethyl)phenyl]methyl}-2,3-dihydro-1H-isoindol-1-yl)-2H-1,4-benzoxazin-3(4H)-one], the 50% inhibitory concentration (IC50) at c-Raf and on B-Raf (read-out: bRaf IC50) was ≥ 10000 nM throughout.

On to `O=C1COc2ccc(C3(O)c4ccccc4C(=O)N3Cc3cc(Br)ccc3F)cc2N1` (stereo not shown) [Entry 51, 6-{2-[(5-bromo-2-fluorophenyl)methyl]-1-hydroxy-3-oxo-2,3-dihydro-1H-isoindol-1-yl}-2H-1,4-benzoxazin-3(4H)-one], for which the half-maximal inhibitory concentration (IC50) at c-Raf and at B-Raf (read-out: bRaf IC50) was 1000 to 10000 nM throughout.

For the molecule `O=C1COc2ccc(C3(O)c4ccccc4C(=O)N3Cc3cccc([N+](=O)[O-])c3)cc2N1` (stereo not shown) [Entry 52, 6-{1-hydroxy-2-[(3-nitrophenyl)methyl]-3-oxo-2,3-dihydro-1H-isoindol-1-yl}-2H-1,4-benzoxazin-3(4H)-one], the 50% inhibitory concentration (IC50) on c-Raf and on B-Raf (read-out: bRaf IC50) was 1000 to 10000 nM each time.

Regarding `O=C1COc2ccc(C3(O)c4ccccc4C(=O)N3Cc3cccc(C(F)(F)F)c3)cc2N1` (stereo not shown) [Entry 53, 6-(1-hydroxy-3-oxo-2-{[3-(trifluoromethyl)phenyl]methyl}-2,3-dihydro-1H-isoindol-1-yl)-2H-1,4-benzoxazin-3(4H)-one], the half-inhibitory concentration (IC50) at c-Raf and on B-Raf (read-out: bRaf IC50) was ≥ 10000 nM in each case.

With `COC(=O)Nc1nc2ccc(C(=O)c3ccccc3C(=O)Nc3cccc(C)c3)cc2[nH]1` [Entry 393, methyl {6-[(2-{[(3-methylphenyl)amino]carbonyl}phenyl)carbonyl]-1H-benzimidazol-2-yl}carbamate], the half-inhibitory concentration (IC50) at B-Raf (setting [1]) was < 100 nM.

On to `COC(=O)Nc1nc2ccc(C(=O)c3ccccc3C(=O)Nc3cccc(F)c3)cc2[nH]1` [Entry 396, methyl {6-[(2-{[(3-fluorophenyl)amino]carbonyl}phenyl)carbonyl]-1H-benzimidazol-2-yl}carbamate], for which, at B-Raf (setting [1]), the IC50 is < 100 nM.

With `CCc1cccc(NC(=O)c2ccccc2C(=O)c2ccc3nc(NC(=O)OC)[nH]c3c2)c1` [Entry 399, methyl {6-[(2-{[(3-ethylphenyl)amino]carbonyl}phenyl)carbonyl]-1H-benzimidazol-2-yl}carbamate], on B-Raf (setting [1]), the IC50 is < 100 nM.

As for `C#Cc1cccc(NC(=O)c2ccccc2C(=O)c2ccc3nc(NC(=O)OC)[nH]c3c2)c1` [Entry 400, methyl {6-[(2-{[(3-ethynylphenyl)amino]carbonyl}phenyl)carbonyl]-1H-benzimidazol-2-yl}carbamate], the half-maximal inhibitory concentration (IC50) at B-Raf (setting [1]) was < 100 nM.

Consider `COC(=O)Nc1nc2ccc(C(=O)c3ccccc3C(=O)Nc3cccc(I)c3)cc2[nH]1` [Entry 403, methyl {6-[(2-{[(3-iodophenyl)amino]carbonyl}phenyl)carbonyl]-1H-benzimidazol-2-yl}carbamate], for which the IC50 on B-Raf (setting [1]) was < 100 nM.

For the molecule `COC(=O)Nc1nc2ccc(C(=O)c3ccccc3C(=O)Nc3cccc(C(C)C)c3)cc2[nH]1` [Entry 404, methyl (6-{[2-({[3-(1-methylethyl)phenyl]amino}carbonyl)phenyl]carbonyl}-1H-benzimidazol-2-yl)carbamate], the concentration for half-maximal inhibition (IC50) on B-Raf (setting [1]) is < 100 nM.

`COC(=O)Nc1nc2ccc(C(=O)c3ccccc3C(=O)NCc3ccsc3)cc2[nH]1` [Entry 405, methyl {6-[(2-{[(3-thienylmethyl)amino]carbonyl}phenyl)carbonyl]-1H-benzimidazol-2-yl}carbamate]: the IC50 on B-Raf (setting [1]) is < 100 nM.

With `COC(=O)Nc1nc2ccc(C(=O)c3ccccc3C(=O)Nc3cc(Br)ccc3F)cc2[nH]1` [Entry 409, methyl {6-[(2-{[(5-bromo-2-fluorophenyl)amino]carbonyl}phenyl)carbonyl]-1H-benzimidazol-2-yl}carbamate], at B-Raf (setting [1]), the 50% inhibitory concentration (IC50) is < 100 nM.

For the molecule `COC(=O)Nc1nc2ccc(C(=O)c3ccccc3C(=O)Nc3cccc(Br)c3F)cc2[nH]1` [Entry 412, methyl {6-[(2-{[(3-bromo-2-fluorophenyl)amino]carbonyl}phenyl)carbonyl]-1H-benzimidazol-2-yl}carbamate], at B-Raf (setting [1]), the IC50 is < 100 nM.

`COC(=O)Nc1nc2ccc(C(=O)c3ccccc3C(=O)Nc3cc(Cl)ccc3C)cc2[nH]1` [Entry 415, methyl {6-[(2-{[(5-chloro-2-methylphenyl)amino]carbonyl}phenyl)carbonyl]-1H-benzimidazol-2-yl}carbamate]: the IC50 on B-Raf (setting [1]) was < 100 nM.

For the molecule `COC(=O)Nc1nc2ccc(C(=O)c3ccccc3C(=O)Nc3cc(Br)ccc3C)cc2[nH]1` [Entry 416, methyl {6-[(2-{[(5-bromo-2-methylphenyl)amino]carbonyl}phenyl)carbonyl]-1H-benzimidazol-2-yl}carbamate], the IC50 on B-Raf (setting [1]) is < 100 nM.

Consider `COC(=O)Nc1nc2ccc(C(=O)c3ccccc3C(=O)Nc3cccc(I)c3F)cc2[nH]1` [Entry 417, methyl {6-[(2-{[(2-fluoro-3-iodophenyl)amino]carbonyl}phenyl)carbonyl]-1H-benzimidazol-2-yl}carbamate], for which the IC50 at B-Raf (setting [1]) is < 100 nM.
